PubChem BioAssay (NCI)
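Where inhibition never reached the appropriate level, the endpoint shown equals the highest concentration tested. Otherwise, values were interpolated linearly from a five-concentration, 48-hour dose response in 96-well plates. GI50 = concentration required for 50% inhibition of growth. The concentration for full growth arrest is given as TGI.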

Key:
Assay in all cases: NCI-60 cell line screen, 48 h
786-0 renal = tested on: 786-0 renal
A498 renal = tested on: A498 renal
A549 NSCLC = tested on: A549 NSCLC
ACHN renal = tested on: ACHN renal
BT-549 breast = tested on: BT-549 breast
CAKI-1 renal = tested on: CAKI-1 renal
CCRF-CEM leukemia = tested on: CCRF-CEM leukemia
COLO 205 colon = tested on: COLO 205 colon
DU-145 prostate = tested on: DU-145 prostate
EKVX NSCLC = tested on: EKVX NSCLC
HCC-2998 colon = tested on: HCC-2998 colon
HCT-116 colon = tested on: HCT-116 colon
HCT-15 colon = tested on: HCT-15 colon
HL-60(TB) leukemia = tested on: HL-60(TB) leukemia
HOP-62 NSCLC = tested on: HOP-62 NSCLC
HOP-92 NSCLC = tested on: HOP-92 NSCLC
HS 578T breast = tested on: HS 578T breast
HT29 colon = tested on: HT29 colon
K-562 leukemia = tested on: K-562 leukemia
KM12 colon = tested on: KM12 colon
LOX IMVI melanoma = tested on: LOX IMVI melanoma
M14 melanoma = tested on: M14 melanoma
MALME-3M melanoma = tested on: MALME-3M melanoma
MCF7 breast = tested on: MCF7 breast
MDA-MB-435 = tested on: MDA-MB-435
MOLT-4 leukemia = tested on: MOLT-4 leukemia
NCI-H226 lung = tested on: NCI-H226 lung
NCI-H23 lung = tested on: NCI-H23 lung
NCI-H460 lung = tested on: NCI-H460 lung
NCI-H522 lung = tested on: NCI-H522 lung
NCI/ADR-RES ovarian = tested on: NCI/ADR-RES ovarian
OVCAR-3 ovarian = tested on: OVCAR-3 ovarian
OVCAR-4 ovarian = tested on: OVCAR-4 ovarian
OVCAR-5 ovarian = tested on: OVCAR-5 ovarian
OVCAR-8 ovarian = tested on: OVCAR-8 ovarian
PC-3 prostate = tested on: PC-3 prostate
RXF 393 renal = tested on: RXF 393 renal
SF-268 CNS = tested on: SF-268 CNS
SF-295 CNS = tested on: SF-295 CNS
SF-539 CNS = tested on: SF-539 CNS
SK-MEL-2 melanoma = tested on: SK-MEL-2 melanoma
SK-MEL-28 melanoma = tested on: SK-MEL-28 melanoma
SK-MEL-5 melanoma = tested on: SK-MEL-5 melanoma
SK-OV-3 ovarian = tested on: SK-OV-3 ovarian
SN12C renal = tested on: SN12C renal
SNB-19 CNS = tested on: SNB-19 CNS
SNB-75 CNS = tested on: SNB-75 CNS
SR leukemia = tested on: SR leukemia
SW-620 colon = tested on: SW-620 colon
T-47D breast = tested on: T-47D breast
TK-10 renal = tested on: TK-10 renal
U251 CNS = tested on: U251 CNS
UACC-257 melanoma = tested on: UACC-257 melanoma
UACC-62 melanoma = tested on: UACC-62 melanoma
UO-31 renal = tested on: UO-31 renal

CC(C)(C)c1cc(C(C)(C)C)cc(S(=O)(=O)Nc2cc3ccccc3cc2C(=O)NCCN)c1
GI50 (786-0 renal): 1670 nM | TGI (786-0 renal): 3090 nM | GI50 (A498 renal): 1770 nM | TGI (A498 renal): 3300 nM | GI50 (A549 NSCLC): 1950 nM | TGI (A549 NSCLC): 3770 nM | GI50 (ACHN renal): 1700 nM | TGI (ACHN renal): 3180 nM | GI50 (BT-549 breast): 1670 nM | TGI (BT-549 breast): 3090 nM | GI50 (CAKI-1 renal): 2750 nM | TGI (CAKI-1 renal): 9330 nM | GI50 (CCRF-CEM leukemia): 2550 nM | TGI (CCRF-CEM leukemia): 6410 nM | GI50 (COLO 205 colon): 1820 nM | TGI (COLO 205 colon): 3370 nM | GI50 (DU-145 prostate): 1820 nM | TGI (DU-145 prostate): 3470 nM | GI50 (EKVX NSCLC): 1450 nM | TGI (EKVX NSCLC): 2880 nM | GI50 (HCC-2998 colon): 1750 nM | TGI (HCC-2998 colon): 3240 nM | GI50 (HCT-116 colon): 1750 nM | TGI (HCT-116 colon): 3220 nM | GI50 (HCT-15 colon): 1640 nM | TGI (HCT-15 colon): 3040 nM | GI50 (HL-60(TB) leukemia): 2040 nM | TGI (HL-60(TB) leukemia): 4220 nM | GI50 (HOP-62 NSCLC): 1570 nM | TGI (HOP-62 NSCLC): 3010 nM | GI50 (HOP-92 NSCLC): 1730 nM | TGI (HOP-92 NSCLC): 3240 nM | GI50 (HS 578T breast): 2170 nM | TGI (HS 578T breast): 4890 nM | GI50 (HT29 colon): 1930 nM | TGI (HT29 colon): 3950 nM | GI50 (K-562 leukemia): 2160 nM | TGI (K-562 leukemia): 4850 nM | GI50 (KM12 colon): 1790 nM | TGI (KM12 colon): 3370 nM | GI50 (LOX IMVI melanoma): 1600 nM | TGI (LOX IMVI melanoma): 3020 nM | GI50 (M14 melanoma): 1710 nM | TGI (M14 melanoma): 3420 nM | GI50 (MALME-3M melanoma): 1540 nM | TGI (MALME-3M melanoma): 3130 nM | GI50 (MCF7 breast): 1530 nM | TGI (MCF7 breast): 2950 nM | GI50 (MDA-MB-435): 1680 nM | TGI (MDA-MB-435): 3180 nM | GI50 (MOLT-4 leukemia): 2320 nM | TGI (MOLT-4 leukemia): 5770 nM | GI50 (NCI-H226 lung): 2160 nM | TGI (NCI-H226 lung): 4280 nM | GI50 (NCI-H23 lung): 1760 nM | TGI (NCI-H23 lung): 3530 nM | GI50 (NCI-H460 lung): 2100 nM | TGI (NCI-H460 lung): 4120 nM | GI50 (NCI-H522 lung): 1800 nM | TGI (NCI-H522 lung): 3720 nM | GI50 (NCI/ADR-RES ovarian): 2370 nM | TGI (NCI/ADR-RES ovarian): 6540 nM | GI50 (OVCAR-3 ovarian): 1750 nM | TGI (OVCAR-3 ovarian): 3210 nM | GI50 (OVCAR-4 ovarian): 1860 nM | TGI (OVCAR-4 ovarian): 3940 nM | GI50 (OVCAR-5 ovarian): 1940 nM | TGI (OVCAR-5 ovarian): 4490 nM | GI50 (OVCAR-8 ovarian): 2200 nM | TGI (OVCAR-8 ovarian): 4870 nM | GI50 (PC-3 prostate): 2400 nM | TGI (PC-3 prostate): 6230 nM | GI50 (RXF 393 renal): 1790 nM | TGI (RXF 393 renal): 3180 nM | GI50 (SF-268 CNS): 1680 nM | TGI (SF-268 CNS): 3350 nM | GI50 (SF-295 CNS): 1720 nM | TGI (SF-295 CNS): 3170 nM | GI50 (SF-539 CNS): 1770 nM | TGI (SF-539 CNS): 3280 nM | GI50 (SK-MEL-2 melanoma): 1920 nM | TGI (SK-MEL-2 melanoma): 3870 nM | GI50 (SK-MEL-28 melanoma): 1870 nM | TGI (SK-MEL-28 melanoma): 3640 nM | GI50 (SK-MEL-5 melanoma): 1750 nM | TGI (SK-MEL-5 melanoma): 3130 nM | GI50 (SK-OV-3 ovarian): 2040 nM | TGI (SK-OV-3 ovarian): 4510 nM | GI50 (SN12C renal): 1860 nM | TGI (SN12C renal): 3600 nM | GI50 (SNB-19 CNS): 1890 nM | TGI (SNB-19 CNS): 3520 nM | GI50 (SNB-75 CNS): 1580 nM | TGI (SNB-75 CNS): 4160 nM | GI50 (SR leukemia): 1900 nM | TGI (SR leukemia): 4430 nM | GI50 (SW-620 colon): 1930 nM | TGI (SW-620 colon): 3950 nM | GI50 (T-47D breast): 1700 nM | TGI (T-47D breast): 3600 nM | GI50 (TK-10 renal): 1780 nM | TGI (TK-10 renal): 3260 nM | GI50 (U251 CNS): 1750 nM | TGI (U251 CNS): 3150 nM | GI50 (UACC-257 melanoma): 2090 nM | TGI (UACC-257 melanoma): 4020 nM | GI50 (UACC-62 melanoma): 1820 nM | TGI (UACC-62 melanoma): 3400 nM | GI50 (UO-31 renal): 1550 nM | TGI (UO-31 renal): 2980 nM
